How the values were obtained:
Dihydrofolate reductase [1] = target: T1, Dihydrofolate reductase (Homo sapiens, UniProt P00374); assay: Antimycobacterial activity against human dihydrofolate reductase (hDHFR)
T1 sequence (P00374 whole entry): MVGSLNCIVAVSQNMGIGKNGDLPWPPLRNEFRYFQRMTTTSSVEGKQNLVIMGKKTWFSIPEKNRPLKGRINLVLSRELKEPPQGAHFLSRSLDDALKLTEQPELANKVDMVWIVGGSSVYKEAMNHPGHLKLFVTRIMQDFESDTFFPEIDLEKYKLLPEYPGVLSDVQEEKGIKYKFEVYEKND

Dihydrofolate reductase [2] = target: T2, Dihydrofolate reductase (Mycobacterium avium, UniProt O30463); assay: Antimycobacterial activity against Mycobacterium avium complex dihydrofolate reductase (MAC DHFR)
T2 sequence (O30463 whole entry): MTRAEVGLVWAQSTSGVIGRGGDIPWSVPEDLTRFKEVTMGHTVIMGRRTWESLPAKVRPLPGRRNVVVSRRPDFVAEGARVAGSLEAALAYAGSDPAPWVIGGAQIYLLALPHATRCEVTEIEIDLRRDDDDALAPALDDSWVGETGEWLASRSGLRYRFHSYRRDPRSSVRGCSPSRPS

Dihydrofolate reductase [3] = target: T2, Dihydrofolate reductase; assay: Antimycobacterial activity scale was evaluated and found to be highly active against MAC Dihydrofolate reductase

Q: With Cc1cc(NCc2cnc3nc(N)nc(N)c3c2C)c(Cl)cc1F as the compound, how does the IC50 (Dihydrofolate reductase [1]) read?
A: 33 nM

Q: And the IC50 (Dihydrofolate reductase [2])?
A: 0.78 nM

Q: Which results are given for Cc1cc(Br)cc(C)c1NCc1cnc2nc(N)nc(N)c2c1C?
A: IC50 (Dihydrofolate reductase [1]): 1900 nM; IC50 (Dihydrofolate reductase [2]): 5.3 nM

Q: What does the source list for Cc1c(Cl)cccc1NCc1cnc2nc(N)nc(N)c2c1C?
A: IC50 (Dihydrofolate reductase [1]): 5.2 nM; IC50 (Dihydrofolate reductase [2]): 0.82 nM

Q: For Cc1c(CNc2cc(Br)ccc2Br)cnc2nc(N)nc(N)c12, which IC50 (Dihydrofolate reductase [1]) is on record?
A: 4.6 nM

Q: And the IC50 (Dihydrofolate reductase [2])?
A: 0.7 nM

Q: Which IC50 (Dihydrofolate reductase [2]) does the source give for Cc1c(CNc2c3ccccc3cc3ccccc23)cnc2nc(N)nc(N)c12 here?
A: 620 nM

Q: Cc1ccc(Cl)cc1NCc1cnc2nc(N)nc(N)c2c1C was tested. Which IC50 (Dihydrofolate reductase [1]) did it give?
A: 6.1 nM

Q: What about the IC50 (Dihydrofolate reductase [2]) of the same compound?
A: 0.79 nM

Q: Which results are given for Cc1c(CNc2cc(Cl)ccc2Cl)cnc2nc(N)nc(N)c12?
A: IC50 (Dihydrofolate reductase [1]): 8 nM; IC50 (Dihydrofolate reductase [2]): 0.89 nM

Q: What does the source list for Cc1cc(C)c(NCc2cnc3nc(N)nc(N)c3c2C)c(Cl)c1?
A: IC50 (Dihydrofolate reductase [1]): 850 nM; IC50 (Dihydrofolate reductase [2]): 3.8 nM

Q: Which results are given for Cc1c(CNc2ccc3ncccc3c2)cnc2nc(N)nc(N)c12?
A: IC50 (Dihydrofolate reductase [1]): 7.1 nM; IC50 (Dihydrofolate reductase [2]): 0.95 nM

Q: COc1cc(-c2ccccc2)ccc1NCc1cnc2nc(N)nc(N)c2c1C was tested. Which IC50 (Dihydrofolate reductase [1]) did it give?
A: 68 nM

Q: What about the IC50 (Dihydrofolate reductase [2]) of the same compound?
A: 0.91 nM

Q: Which IC50 (Dihydrofolate reductase [1]) does the source give for CCc1c(CNc2cc(C(F)(F)F)ccc2OC)cnc2nc(N)nc(N)c12 here?
A: 3.6 nM

Q: And the IC50 (Dihydrofolate reductase [2])?
A: 0.88 nM

Q: How did the IC50 (Dihydrofolate reductase [1]) turn out when Cc1c(CNC2CCCc3ccccc32)cnc2nc(N)nc(N)c12 (configuration not stated) was run?
A: 3400 nM

Q: And the IC50 (Dihydrofolate reductase [2])?
A: 280 nM

Q: What does the source list for Cc1ccc(NCc2cnc3nc(N)nc(N)c3c2C)cc1Br?
A: IC50 (Dihydrofolate reductase [1]): 3.7 nM; IC50 (Dihydrofolate reductase [2]): 0.6 nM

Q: Cc1cc(Br)ccc1NCc1cnc2nc(N)nc(N)c2c1C was tested. Which IC50 (Dihydrofolate reductase [1]) did it give?
A: 5.9 nM

Q: And the IC50 (Dihydrofolate reductase [2])?
A: 0.85 nM

Q: Which results are given for COc1cc(SCc2cnc3nc(N)nc(N)c3c2C)cc(OC)c1OC?
A: IC50 (Dihydrofolate reductase [1]): 1200 nM; IC50 (Dihydrofolate reductase [2]): 4.5 nM

Q: For Cc1c(CNc2cnc3ccccc3c2)cnc2nc(N)nc(N)c12, which IC50 (Dihydrofolate reductase [1]) is on record?
A: 12 nM

Q: What about the IC50 (Dihydrofolate reductase [2]) of the same compound?
A: 1.2 nM

Q: Which IC50 (Dihydrofolate reductase [1]) does the source give for Cc1ccc(Cl)c(NCc2cnc3nc(N)nc(N)c3c2C)c1 here?
A: 44 nM

Q: What about the IC50 (Dihydrofolate reductase [2]) of the same compound?
A: 0.95 nM

Q: Which results are given for CCc1c(CNc2cc(OC)ccc2OC)cnc2nc(N)nc(N)c12?
A: IC50 (Dihydrofolate reductase [1]): 1000 nM; IC50 (Dihydrofolate reductase [2]): 2.8 nM

Q: Cc1c(CNc2ccc3c(c2)Cc2ccccc2-3)cnc2nc(N)nc(N)c12 was tested. Which IC50 (Dihydrofolate reductase [1]) did it give?
A: 6.7 nM

Q: And the IC50 (Dihydrofolate reductase [2])?
A: 0.86 nM

Q: What does the source list for COc1ccc(OC)c(SCc2cnc3nc(N)nc(N)c3c2C)c1?
A: IC50 (Dihydrofolate reductase [1]): 2500 nM; IC50 (Dihydrofolate reductase [2]): 23 nM

Q: With Cc1c(CNc2ccc(Cl)c3ccccc23)cnc2nc(N)nc(N)c12 as the compound, how does the IC50 (Dihydrofolate reductase [1]) read?
A: 2 nM

Q: And the IC50 (Dihydrofolate reductase [2])?
A: 0.43 nM

Q: What does the source list for Cc1cc(NCc2cnc3nc(N)nc(N)c3c2C)ccc1Br?
A: IC50 (Dihydrofolate reductase [1]): 6.1 nM; IC50 (Dihydrofolate reductase [2]): 0.87 nM

Q: For Cc1cc(Cl)ccc1NCc1cnc2nc(N)nc(N)c2c1C, which IC50 (Dihydrofolate reductase [1]) is on record?
A: 2.8 nM

Q: What does the source list for COCc1c(CNc2cc(OC)ccc2OC)cnc2nc(N)nc(N)c12?
A: IC50 (Dihydrofolate reductase [1]): 31000 nM; IC50 (Dihydrofolate reductase [2]): 2400 nM

Q: Which results are given for Cc1c(CNc2cc(F)ccc2F)cnc2nc(N)nc(N)c12?
A: IC50 (Dihydrofolate reductase [1]): 69 nM; IC50 (Dihydrofolate reductase [2]): 0.9 nM

Q: What does the source list for COCc1c(CNc2ccc(OC)c(OC)c2)cnc2nc(N)nc(N)c12?
A: IC50 (Dihydrofolate reductase [1]): 6100 nM; IC50 (Dihydrofolate reductase [2]): 1200 nM

Q: For CCCOc1ccc(OCCC)c(NCc2cnc3nc(N)nc(N)c3c2C)c1, which IC50 (Dihydrofolate reductase [1]) is on record?
A: 7300 nM

Q: What about the IC50 (Dihydrofolate reductase [2]) of the same compound?
A: 1 nM

Q: Which results are given for Cc1c(CNc2ccc3ccccc3c2)cnc2nc(N)nc(N)c12?
A: IC50 (Dihydrofolate reductase [1]): 10 nM; IC50 (Dihydrofolate reductase [2]): 0.76 nM

Q: What does the source list for Cc1c(CNc2ccc3c4c(cccc24)-c2ccccc2-3)cnc2nc(N)nc(N)c12?
A: IC50 (Dihydrofolate reductase [1]): 6.2 nM; IC50 (Dihydrofolate reductase [2]): 1 nM

Q: With COc1cc(CCc2cnc3nc(N)nc(N)c3c2C)cc(OC)c1 as the compound, how does the IC50 (Dihydrofolate reductase [1]) read?
A: 990 nM

Q: And the IC50 (Dihydrofolate reductase [2])?
A: 1.5 nM

Q: Which results are given for Cc1c(CNC2c3ccccc3-c3ccccc32)cnc2nc(N)nc(N)c12?
A: IC50 (Dihydrofolate reductase [1]): 5300 nM; IC50 (Dihydrofolate reductase [2]): 320 nM

Q: COCc1c(CNc2cc(OC)c(OC)c(OC)c2)cnc2nc(N)nc(N)c12 was tested. Which IC50 (Dihydrofolate reductase [1]) did it give?
A: 1300 nM

Q: And the IC50 (Dihydrofolate reductase [2])?
A: 550 nM

Q: For Cc1c(CNc2cc(C(F)(F)F)ccc2Br)cnc2nc(N)nc(N)c12, which IC50 (Dihydrofolate reductase [1]) is on record?
A: 3.2 nM

Q: And the IC50 (Dihydrofolate reductase [2])?
A: 0.82 nM

Q: For CCCOc1ccc(NCc2cnc3nc(N)nc(N)c3c2C)cc1OC, which IC50 (Dihydrofolate reductase [1]) is on record?
A: 15 nM

Q: And the IC50 (Dihydrofolate reductase [2])?
A: 0.93 nM

Q: And the IC50 (Dihydrofolate reductase [3])?
A: < 10 nM

Q: How did the IC50 (Dihydrofolate reductase [1]) turn out when Cc1c(CNc2cccc3ncccc23)cnc2nc(N)nc(N)c12 was run?
A: 4.3 nM

Q: And the IC50 (Dihydrofolate reductase [2])?
A: 0.98 nM

Q: For COc1cc(OC)cc(N(C)Cc2cnc3nc(N)nc(N)c3c2C)c1, which IC50 (Dihydrofolate reductase [1]) is on record?
A: 8.7 nM

Q: And the IC50 (Dihydrofolate reductase [2])?
A: 0.73 nM

Q: What does the source list for Cc1c(CSc2ccc(Cl)cc2)cnc2nc(N)nc(N)c12?
A: IC50 (Dihydrofolate reductase [1]): 590 nM; IC50 (Dihydrofolate reductase [2]): 3.6 nM

Q: Which results are given for Nc1nc(N)c2cc(CNc3cccc4ccccc34)cnc2n1?
A: IC50 (Dihydrofolate reductase [1]): 820 nM; IC50 (Dihydrofolate reductase [2]): 86 nM

Q: How did the IC50 (Dihydrofolate reductase [1]) turn out when COc1ccc(OC)c(NCc2cnc3nc(N)nc(N)c3c2C)c1 was run?
A: 1000 nM

Q: What about the IC50 (Dihydrofolate reductase [2]) of the same compound?
A: 1.1 nM
